Tests used:
Test in all cases: Upstate KinaseProfiler radio-enzymatic filter binding assay
Type in all cases: biochemical
Settings in all cases: 10 μM compound, remaining activity
Bmx = target: T1, Bmx (Homo sapiens, UniProt P51813)
T1 construct: purchased Upstate
T1 sequence (P51813 1-675): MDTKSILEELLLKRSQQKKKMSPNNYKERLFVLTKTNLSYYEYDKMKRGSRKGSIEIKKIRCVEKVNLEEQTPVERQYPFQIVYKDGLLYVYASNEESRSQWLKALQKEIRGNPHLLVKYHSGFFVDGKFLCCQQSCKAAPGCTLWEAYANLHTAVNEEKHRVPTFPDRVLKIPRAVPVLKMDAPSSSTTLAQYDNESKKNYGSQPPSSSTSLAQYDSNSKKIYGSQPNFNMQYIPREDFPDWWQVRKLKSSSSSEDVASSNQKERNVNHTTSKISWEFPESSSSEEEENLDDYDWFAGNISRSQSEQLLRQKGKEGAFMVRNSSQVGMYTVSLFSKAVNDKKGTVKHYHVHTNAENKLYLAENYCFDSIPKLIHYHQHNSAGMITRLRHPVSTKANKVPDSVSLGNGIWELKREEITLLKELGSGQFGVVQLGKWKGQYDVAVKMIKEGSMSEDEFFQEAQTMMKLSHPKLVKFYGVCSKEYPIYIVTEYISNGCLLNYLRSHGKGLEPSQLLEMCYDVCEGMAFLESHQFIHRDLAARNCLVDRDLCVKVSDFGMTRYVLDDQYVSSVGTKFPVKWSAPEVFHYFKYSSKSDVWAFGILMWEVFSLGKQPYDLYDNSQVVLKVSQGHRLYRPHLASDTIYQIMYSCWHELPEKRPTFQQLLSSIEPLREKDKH
Procedure: (§1) Percentage inhibition is calculated for each reaction.

Flt3 = target: T2, Flt3 (Homo sapiens, UniProt P36888)
T2 construct: purchased Upstate
T2 sequence (P36888 27-993): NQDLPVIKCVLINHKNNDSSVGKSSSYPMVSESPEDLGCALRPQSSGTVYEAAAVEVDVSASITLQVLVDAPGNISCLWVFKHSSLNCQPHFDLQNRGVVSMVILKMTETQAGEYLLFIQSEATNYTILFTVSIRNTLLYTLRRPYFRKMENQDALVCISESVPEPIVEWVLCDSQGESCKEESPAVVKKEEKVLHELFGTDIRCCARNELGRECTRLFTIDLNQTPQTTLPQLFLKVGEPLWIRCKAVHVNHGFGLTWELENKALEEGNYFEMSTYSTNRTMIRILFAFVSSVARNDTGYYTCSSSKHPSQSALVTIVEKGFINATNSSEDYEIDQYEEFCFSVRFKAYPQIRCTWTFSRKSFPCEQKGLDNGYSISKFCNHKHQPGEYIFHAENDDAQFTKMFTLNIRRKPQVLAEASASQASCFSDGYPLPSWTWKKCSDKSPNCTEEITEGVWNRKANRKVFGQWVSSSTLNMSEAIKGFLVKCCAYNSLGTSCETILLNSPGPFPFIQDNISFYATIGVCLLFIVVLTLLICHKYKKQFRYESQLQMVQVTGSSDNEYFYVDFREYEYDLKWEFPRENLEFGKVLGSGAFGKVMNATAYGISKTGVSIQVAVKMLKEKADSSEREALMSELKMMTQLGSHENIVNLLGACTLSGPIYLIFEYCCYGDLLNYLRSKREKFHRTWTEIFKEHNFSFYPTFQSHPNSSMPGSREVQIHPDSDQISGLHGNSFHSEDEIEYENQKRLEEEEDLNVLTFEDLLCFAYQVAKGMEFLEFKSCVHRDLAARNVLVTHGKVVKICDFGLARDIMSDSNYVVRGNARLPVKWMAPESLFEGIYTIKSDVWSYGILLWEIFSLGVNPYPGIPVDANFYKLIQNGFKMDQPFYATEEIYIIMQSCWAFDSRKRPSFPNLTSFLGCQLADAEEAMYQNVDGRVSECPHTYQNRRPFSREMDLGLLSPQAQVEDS
Procedure: as §1

Lck = target: T3, Lck (Homo sapiens, UniProt P06239)
T3 construct: purchased Upstate
Procedure: as §1

SAPK2a = target: T4, SAPK2a (Homo sapiens, UniProt Q16539)
T4 construct: purchased Upstate
Procedure: as §1

Measured: kinase activity

T3 sequence (P06239 whole entry): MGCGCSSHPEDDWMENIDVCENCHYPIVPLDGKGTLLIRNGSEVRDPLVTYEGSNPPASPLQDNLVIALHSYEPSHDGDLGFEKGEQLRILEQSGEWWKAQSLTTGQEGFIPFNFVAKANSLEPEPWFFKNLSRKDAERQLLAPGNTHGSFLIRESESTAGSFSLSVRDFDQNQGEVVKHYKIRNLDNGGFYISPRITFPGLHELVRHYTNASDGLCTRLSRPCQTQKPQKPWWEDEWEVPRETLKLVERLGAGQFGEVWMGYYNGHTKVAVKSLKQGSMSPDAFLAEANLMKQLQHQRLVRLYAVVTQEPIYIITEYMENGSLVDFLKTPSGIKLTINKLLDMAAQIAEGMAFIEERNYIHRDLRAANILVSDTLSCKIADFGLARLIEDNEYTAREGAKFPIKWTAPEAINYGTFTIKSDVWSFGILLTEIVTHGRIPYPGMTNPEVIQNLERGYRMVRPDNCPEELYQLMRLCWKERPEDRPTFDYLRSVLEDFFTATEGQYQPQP
T4 sequence (Q16539 whole entry): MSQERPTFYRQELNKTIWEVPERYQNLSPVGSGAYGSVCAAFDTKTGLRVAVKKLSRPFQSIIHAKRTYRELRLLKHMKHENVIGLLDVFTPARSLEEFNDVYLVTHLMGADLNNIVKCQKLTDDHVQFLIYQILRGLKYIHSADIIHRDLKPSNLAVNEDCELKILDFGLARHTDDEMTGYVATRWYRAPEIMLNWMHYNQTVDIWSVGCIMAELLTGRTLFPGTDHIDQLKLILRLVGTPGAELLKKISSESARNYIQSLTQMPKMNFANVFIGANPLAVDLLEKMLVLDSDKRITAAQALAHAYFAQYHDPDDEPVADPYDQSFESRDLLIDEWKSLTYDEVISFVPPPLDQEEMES

O=C(Nc1cccc(Nc2cc(Nc3cccc(C(F)(F)F)c3)ncn2)c1)C1CC1 [Example 1, Cyclopropanecarboxylic acid {3-[6-(3-trifluoromethyl-phenylamino)-pyrimidin-4-ylamino]-phenyl}-amide]
less than 50%: all assays above
